{"source": "ChEMBL document CHEMBL1201862", "about": "“PubChem BioAssay data set” (2004)", "key": {"[1]": {"target": "T1, COUP transcription factor 2 (Homo sapiens, UniProt P24468)", "T1 sequence (P24468 whole entry)": "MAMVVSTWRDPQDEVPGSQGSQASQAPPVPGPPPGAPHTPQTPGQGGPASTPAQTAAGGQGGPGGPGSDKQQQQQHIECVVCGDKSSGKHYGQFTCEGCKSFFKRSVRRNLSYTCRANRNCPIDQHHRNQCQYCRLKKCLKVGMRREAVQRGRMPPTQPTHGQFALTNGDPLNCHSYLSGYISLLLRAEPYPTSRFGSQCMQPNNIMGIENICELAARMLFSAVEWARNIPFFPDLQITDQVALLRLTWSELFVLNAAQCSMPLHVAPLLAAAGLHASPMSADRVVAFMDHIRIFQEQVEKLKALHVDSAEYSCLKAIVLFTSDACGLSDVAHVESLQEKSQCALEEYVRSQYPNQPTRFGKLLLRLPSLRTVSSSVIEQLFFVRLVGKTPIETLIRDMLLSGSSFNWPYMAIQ", "experiment": "Luminescence-based cell-based high throughput dose response assay to identify inhibitors of COUP-TFII (NR2F2).", "type": "functional"}, "[2]": {"target": "Photoreceptor-specific nuclear receptor (Homo sapiens, UniProt Q9Y5X4)", "sequence (Q9Y5X4 whole entry)": "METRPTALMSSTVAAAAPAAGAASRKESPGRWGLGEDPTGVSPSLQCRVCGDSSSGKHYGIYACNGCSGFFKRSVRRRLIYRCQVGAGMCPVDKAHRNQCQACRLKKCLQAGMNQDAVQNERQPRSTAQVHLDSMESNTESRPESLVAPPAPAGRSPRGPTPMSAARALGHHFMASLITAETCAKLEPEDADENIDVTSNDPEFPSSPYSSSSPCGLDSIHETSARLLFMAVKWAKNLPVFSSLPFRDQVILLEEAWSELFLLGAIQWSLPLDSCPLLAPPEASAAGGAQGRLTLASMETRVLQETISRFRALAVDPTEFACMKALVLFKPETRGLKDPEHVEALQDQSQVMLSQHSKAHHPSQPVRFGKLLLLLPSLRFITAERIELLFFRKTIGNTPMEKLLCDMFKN", "type": "functional, cell-based"}, "[3]": {"experiment": "viability loss in HeLa cells – cytotoxicity control for MgcRacGAP inhibitor project, dose response (AID 624300)", "type": "functional"}, "[4]": {"target": "T2, Small ubiquitin-related modifier 1 (Homo sapiens, UniProt P63165)", "T2 sequence (P63165 whole entry)": "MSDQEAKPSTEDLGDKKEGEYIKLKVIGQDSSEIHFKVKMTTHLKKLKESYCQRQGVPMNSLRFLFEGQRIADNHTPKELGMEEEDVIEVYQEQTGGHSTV", "experiment": "SUMO1 protein interaction blockers, potency – biochemical, fluorescence polarization, uHTS hits, dose response (AID 624382)", "type": "functional", "conditions": "read-out: IC50_Mean"}, "[5]": {"target": "T3, Rac GTPase-activating protein 1 (Homo sapiens, UniProt Q9H0H5)", "T3 sequence (Q9H0H5 whole entry)": "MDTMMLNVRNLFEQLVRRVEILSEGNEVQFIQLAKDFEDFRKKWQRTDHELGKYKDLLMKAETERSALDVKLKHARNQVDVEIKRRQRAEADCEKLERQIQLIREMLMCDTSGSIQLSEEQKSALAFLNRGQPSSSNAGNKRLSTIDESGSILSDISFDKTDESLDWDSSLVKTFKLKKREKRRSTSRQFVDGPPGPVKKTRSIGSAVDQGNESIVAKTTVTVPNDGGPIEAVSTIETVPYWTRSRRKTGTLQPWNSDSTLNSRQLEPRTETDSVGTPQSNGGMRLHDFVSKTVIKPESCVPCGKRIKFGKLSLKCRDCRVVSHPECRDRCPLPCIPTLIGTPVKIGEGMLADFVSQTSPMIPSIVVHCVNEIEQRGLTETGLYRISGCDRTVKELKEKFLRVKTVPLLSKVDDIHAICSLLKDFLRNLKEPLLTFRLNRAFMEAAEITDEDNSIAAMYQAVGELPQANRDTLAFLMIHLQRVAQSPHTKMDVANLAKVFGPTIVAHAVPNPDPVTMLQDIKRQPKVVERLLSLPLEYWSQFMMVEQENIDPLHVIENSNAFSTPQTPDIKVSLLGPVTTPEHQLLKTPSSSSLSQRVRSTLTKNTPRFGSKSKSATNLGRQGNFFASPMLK", "experiment": "blockers of MgcRacGAP-driven Rac1 GTP hydrolysis – biochemical, ADP Hunter fluorescence, primary and confirmatory, confirmation (AID 624330)", "type": "functional"}, "[6]": {"target": "T2, Small ubiquitin-related modifier 1", "experiment": "SUMO1 protein-protein binding blockers, potency – biochemical, FRET, dose response (AID 624383)", "type": "functional", "conditions": "read-out: IC50_Mean"}, "[7]": {"target": "T4, Probable nicotinate-nucleotide adenylyltransferase (Staphylococcus aureus (strain N315), UniProt P65502)", "T4 sequence (P65502 whole entry)": "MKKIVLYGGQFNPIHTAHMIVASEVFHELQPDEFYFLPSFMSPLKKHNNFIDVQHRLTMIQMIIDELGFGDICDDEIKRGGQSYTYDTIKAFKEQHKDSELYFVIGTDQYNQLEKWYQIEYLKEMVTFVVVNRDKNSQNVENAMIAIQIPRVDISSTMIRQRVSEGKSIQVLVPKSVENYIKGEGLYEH", "type": "functional, Staphylococcus aureus subsp. aureus N315", "conditions": "read-out: IC50_Mean"}, "[8]": {"target": "T4, Probable nicotinate-nucleotide adenylyltransferase", "type": "functional, Staphylococcus aureus subsp. aureus N315"}, "[9]": {"target": "T5, Aryl hydrocarbon receptor (Homo sapiens, UniProt P35869)", "T5 sequence (P35869 whole entry)": "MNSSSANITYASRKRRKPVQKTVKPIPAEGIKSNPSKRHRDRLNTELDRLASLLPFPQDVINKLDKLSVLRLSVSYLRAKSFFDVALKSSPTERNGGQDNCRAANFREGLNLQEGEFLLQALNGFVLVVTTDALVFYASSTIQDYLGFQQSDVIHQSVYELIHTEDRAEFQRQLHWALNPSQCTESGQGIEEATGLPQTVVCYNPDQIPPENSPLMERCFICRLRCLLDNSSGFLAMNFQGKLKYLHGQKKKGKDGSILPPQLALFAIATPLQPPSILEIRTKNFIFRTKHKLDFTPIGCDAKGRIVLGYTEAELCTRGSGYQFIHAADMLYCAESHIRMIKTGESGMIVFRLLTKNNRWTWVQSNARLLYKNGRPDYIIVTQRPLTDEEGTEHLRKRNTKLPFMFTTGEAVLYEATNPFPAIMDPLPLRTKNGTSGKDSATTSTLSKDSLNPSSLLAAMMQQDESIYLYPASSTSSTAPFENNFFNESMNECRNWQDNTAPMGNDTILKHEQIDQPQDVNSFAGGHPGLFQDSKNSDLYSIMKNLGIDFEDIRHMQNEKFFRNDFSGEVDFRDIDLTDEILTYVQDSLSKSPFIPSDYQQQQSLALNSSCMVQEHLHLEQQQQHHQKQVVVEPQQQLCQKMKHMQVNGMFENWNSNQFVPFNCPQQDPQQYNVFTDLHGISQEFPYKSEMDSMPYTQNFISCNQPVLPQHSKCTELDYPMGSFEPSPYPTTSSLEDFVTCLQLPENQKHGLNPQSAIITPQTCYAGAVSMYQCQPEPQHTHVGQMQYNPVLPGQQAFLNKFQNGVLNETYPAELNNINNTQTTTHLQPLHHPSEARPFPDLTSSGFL", "conditions": "Potency"}, "[10]": {"experiment": "Fluorescence-based cell-based high throughput dose response assay for inhibitors of the interaction of nucleotide-binding oligomerization domain containing 2 (NOD2) and the receptor-interacting serine-threonine kinase 2 (RIPK2).", "type": "functional", "conditions": "Homo sapiens"}, "Beta Lactamase": {"target": "Beta Lactamase (Pseudomonas aeruginosa, UniProt Q932Y6)", "sequence (Q932Y6 whole entry)": "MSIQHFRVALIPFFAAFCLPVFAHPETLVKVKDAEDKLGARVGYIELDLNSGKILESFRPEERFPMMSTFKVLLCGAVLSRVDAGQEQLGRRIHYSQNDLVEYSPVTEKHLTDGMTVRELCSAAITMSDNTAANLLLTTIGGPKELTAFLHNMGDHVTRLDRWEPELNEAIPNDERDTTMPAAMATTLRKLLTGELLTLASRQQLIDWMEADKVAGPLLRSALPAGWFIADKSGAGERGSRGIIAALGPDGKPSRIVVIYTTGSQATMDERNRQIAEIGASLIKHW", "experiment": "BLA reporter interference, concentration series – BLA reporter cells, FRET fluorescence, artefact control for NOD2-RIPK2 interaction inhibitor project, dose response (AID 651552)", "type": "functional, cell-based"}}, "note": "Active and inactive are the calls of the source.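 For AC50 in this document: confirmatory quantitative high-throughput screen measuring activation of the AhR signaling pathway.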"}
{"smiles": "c1ccc(C(Cc2nc(-c3ccncc3)no2)c2ccccc2)cc1", "values": [{"measurement": "IC50", "setting": "[1]", "value": "14 µM (inactive)"}, {"measurement": "IC50", "setting": "[2]", "value": "5.57 µM (active)"}]}
{"smiles": "Cc1cc(NCCCCCCCNc2cc(C)nc3cc([N+](=O)[O-])ccc23)c2ccc([N+](=O)[O-])cc2n1", "values": [{"measurement": "CC50", "setting": "[3]", "value": "37.8 µM (active)"}, {"measurement": "IC50", "setting": "[4]", "value": "> 66.6 µM (inactive)"}, {"measurement": "IC50", "setting": "[5]", "value": "26.1 µM (active)"}, {"measurement": "IC50", "setting": "[6]", "value": "2.12 µM (active)"}, {"measurement": "IC50", "setting": "[7]", "value": "23.2 µM (active)"}, {"measurement": "IC50", "setting": "[8]", "value": "15.2 µM (active)"}]}
{"smiles": "Nc1c(Cl)c(Cl)c(Cl)c(Cl)c1Cl", "values": [{"measurement": "AC50", "setting": "[9]", "value": "44.7 µM (inconclusive)"}]}
{"smiles": "CCOC(=O)[C@]12Cc3cc(Cl)ccc3[C@H]1N(C(C)C)C(=O)c1ccccc12", "values": [{"measurement": "IC50", "setting": "[10]", "value": "2.21 µM (active)"}, {"measurement": "IC50", "setting": "Beta Lactamase", "value": "45.2 µM (inactive)"}]}
{"smiles": "O=[N+]([O-])c1cc(C(F)(F)F)c(Cl)c([N+](=O)[O-])c1Nc1ncc(C(F)(F)F)cc1Cl", "note": "[FLUAZINAM]", "values": [{"measurement": "AC50", "setting": "[9]", "value": "31.6 µM (inconclusive)"}]}
